From patent publication US8822414B2, “Heterocyclic compounds suitable for the treatment of dyslipidemia” (Cadila Healthcare Limited, priority 2010, dated 2014)

What was measured:
High Fat Diet C57 Mice = assay: LDL-C lowering activity in high fat diet C57 mice; type: in vivo; details: C57 mice on high fat diet, dose 30 mg, orally once a day, day 28 of treatment
Description: The in-vivo LDL-c lowering for test compound was tested in C57 mice which were kept on high fat diet for 4 weeks and the blood was collected by retro-orbital sinus puncture method under light ether anesthesia on day 0 (pretreatment). Animal are grouped based on LDL-C levels, after that 4-6 week treatment with vehicle or test compound orally at a dose of 30 mpk dose once a day was given. On completion of treatment on day 28 of the treatment the blood was collected for LDL-C levels measurement. The percent change in LDL-C in test compound group Vs Vehicle group was calculated.

[1] = molecular target: pro-protein convertase of the subtype nine binding to recombinant LDLR-AB domain (Homo sapiens, UniProt Q8NBP7); assay: in vitro quantitative solid phase binding assay (ELISA) of the subtype nine pro-protein convertase to immobilized LDLR; details: for inhibition at 1 µM: Concentration 1 μM; for inhibition at 10 µM: Concentration 10 μM; for inhibition at 100 µM: Concentration 100 μM
Description: The in vitro binding assay described hereinafter is a quantitative solid phase binding assay for determining the efficacy of the compounds. Plates were pre-coated with a recombinant LDLR-AB domain, which binds to the gene pro-protein convertase of the subtype nine. Test compound at different concentrations was added to the subtype gene and added to LDLR immobilized on the wells. The amount of bound gene is measured by binding it with biotinylated anti-His-tag monoclonal antibody, followed by binding with horseradish peroxidase conjugated streptavidin substrate. The color was quantified by ELISA reader at […] which reflects the relative amount of “the gene” that binds to LDLR in presence and absence of the inhibitor. EC50 values were calculated by nonlinear regression analysis using graph pad prism software. Each concentration point represents values in duplicates.

Sequence of pro-protein convertase of the subtype nine binding to recombinant LDLR-AB domain (Q8NBP7 153-692): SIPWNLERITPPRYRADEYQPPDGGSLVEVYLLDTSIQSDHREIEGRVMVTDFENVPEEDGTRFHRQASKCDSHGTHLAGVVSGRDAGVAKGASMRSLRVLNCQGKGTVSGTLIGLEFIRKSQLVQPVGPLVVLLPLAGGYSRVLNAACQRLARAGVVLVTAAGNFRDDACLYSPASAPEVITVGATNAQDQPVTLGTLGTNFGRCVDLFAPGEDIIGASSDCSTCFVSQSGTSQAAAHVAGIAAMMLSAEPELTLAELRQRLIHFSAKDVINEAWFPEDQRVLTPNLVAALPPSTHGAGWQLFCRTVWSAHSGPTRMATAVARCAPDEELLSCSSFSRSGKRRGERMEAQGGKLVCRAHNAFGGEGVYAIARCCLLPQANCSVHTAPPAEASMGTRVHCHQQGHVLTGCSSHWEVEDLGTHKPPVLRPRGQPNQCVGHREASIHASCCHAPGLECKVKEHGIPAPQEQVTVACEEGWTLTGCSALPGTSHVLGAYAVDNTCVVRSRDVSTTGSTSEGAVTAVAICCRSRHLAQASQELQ
Sequence of pro-protein convertase of the subtype nine binding to recombinant LDLR-AB domain (Q8NBP7 31-152 partner limits assumed): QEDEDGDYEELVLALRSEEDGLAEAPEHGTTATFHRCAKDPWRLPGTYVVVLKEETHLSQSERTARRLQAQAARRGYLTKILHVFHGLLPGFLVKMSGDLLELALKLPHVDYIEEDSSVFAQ

Structure (SMILES)	% Change Vs Vehicle Control LDL-C (High Fat Diet C57 Mice) [%]	% Change Vs Vehicle Control TC (High Fat Diet C57 Mice) [%]	inhibition at 1 µM [1] [%]	inhibition at 10 µM [1] [%]	inhibition at 100 µM [1] [%]
CCC(=NOCc1ccc(C(F)(F)F)cc1)c1ccc(OCC(=O)NCC2CCOCC2)cc1 [Example 1, N-((tetrahydro-2H-pyran-4-yl)methyl)-2-(4-(1-(((4-(trifluoromethyl)benzyl)oxy)imino)propyl)phenoxy)acetamide]	−48.8 ± 4.2	−11.8 ± 2.7	29	35	57
CC(=NOCc1ccc(C(F)(F)F)cc1)c1ccc(OCC(=O)NCC2CCOCC2)nc1 [Example 3, N-((tetrahydro-2H-pyran-4-yl)methyl)-2-((5-(1-(((4-(trifluoromethyl)benzyl)oxy)imino)ethyl)pyridin-2-yl)oxy)acetamide]	−74.6 ± 2.0	−33.6 ± 2.0	28	41	54
CC(=NOCc1ccc(C(F)(F)F)cc1)c1ccc(OCC(=O)NCC2CCOCC2)cc1 [Example 18, N-((tetrahydro-2H-pyran-4-yl)methyl)-2-(4-(1-(((4-(trifluoromethyl)benzyl)oxy)imino)ethyl)phenoxy)acetamide]	−75.2 ± 3.5	−41.6 ± 1.9	16	38	63
O=C(COc1ccc(C(Cc2ccccc2)=NOCc2ccc(OC(F)(F)F)cc2)cc1)NCC1CCOCC1 [Example 39, 2-(4-(2-phenyl-1-(((4-(trifluoromethoxy)benzyl)oxy)imino)ethyl)phenoxy)-N-((tetrahydro-2H-pyran-4-yl)methyl)acetamide]	–	–	–	33	42
COc1ccc(CON=C(Cc2ccccc2)c2ccc(OCC(=O)NCC3CCOCC3)c(C)c2)cc1 [Example 40, 2-(4-(1-(((4-methoxybenzyl)oxy)imino)-2-phenylethyl)-2-methylphenoxy)-N-((tetrahydro-2H-pyran-4-yl)methyl)acetamide]	–	–	–	20	47
COc1ccc(CON=C(Cc2ccccc2)c2ccc(OCC(=O)NCC3CCOCC3)cc2)cc1 [Example 41, 2-(4-(1-(((4-methoxybenzyl)oxy)imino)-2-phenylethyl)phenoxy)-N-((tetrahydro-2H-pyran-4-yl)methyl)acetamide]	–	–	10	–	19
CCC(=NOCc1ccc(S(C)(=O)=O)cc1)c1ccc(OCC(=O)NCC2CCOCC2)cc1 [Example 42, 2-(4-(1-(((4-(methylsulfonyl)benzyl)oxy)imino)propyl)phenoxy)-N-((tetrahydro-2H-pyran-4-yl)methyl)acetamide]	–	–	–	9	51
O=C(COc1ccc(C(Cc2ccccc2)=NOCc2ccccn2)cc1)NCC1CCOCC1 [Example 43, 2-(4-(2-phenyl-1-((pyridin-2-ylmethoxy)imino)ethyl)phenoxy)-N-((tetrahydro-2H-pyran-4-yl)methyl)acetamide]	–	–	–	15	27
O=C(COc1ccc2c(c1)CCCC2=NOCc1ccc(C(F)(F)F)cc1)NCC1CCOCC1 [Example 48, N-((tetrahydro-2H-pyran-4-yl)methyl)-2-((5-(((4-(trifluoromethyl)benzyl)oxy)imino)-5,6,7,8-tetrahydronaphthalen-2-yl)oxy)acetamide]	–	–	17	42	64
O=C(COc1ccc2c(c1)CCCC2=NOCc1ccc(Cl)cc1)NCC1CCOCC1 [Example 49, 2-((5-(((4-chlorobenzyl)oxy)imino)-5,6,7,8-tetrahydronaphthalen-2-yl)oxy)-N-((tetrahydro-2H-pyran-4-yl)methyl)acetamide]	–	–	–	7	11
